Publication PMC7942396, “Drug Repurposing Screen for Compounds Inhibiting the Cytopathic Effect of SARS-CoV-2” (Frontiers in Pharmacology, 2021)
Where “and” joins values, the source holds several entries; their conditions need not be identical. Equal entries are not always repeated. Structures can show the parent of a compound that is named as a salt. Where two headings read alike, the source gives them in different places.

Columns and labels:
[1] = system: SARS-CoV-2 (USA_WA1/2020); test: microbe, parasite or virus in culture; assay type: cell-based
[2] = human, cited from earlier work
SARS-CoV = conditions: ref Barnard et al., 2008; read-out: EC50, inhibition of SARS-CoV replication; cited from earlier work
in vitro = conditions: African green monkey
Ebola virus = conditions: ref Kouznetsova et al., 2019; read-out: EC50, block of Ebola viral entry; cited from earlier work
Vero E6 cells = test: cells; conditions: Chlorocebus sabaeus, Vero C1008, read-out: % Viability: IC50
SARS-CoV-2 [3] = system: SARS-CoV-2; design: method as in Stanford University, 2020; conditions: Vero E6 cells; ref Stanford University, 2020; read-out: EC50 against SARS-CoV-2; cited from earlier work
SARS-CoV-2 [4] = system: SARS-CoV-2; design: method as in Stanford University, 2020; conditions: Calu-3 or Huh7 cell lines; ref Stanford University, 2020; read-out: EC50 against SARS-CoV-2; cited from earlier work
P-glycoprotein (P-gp) = system: P-glycoprotein (P-gp); design: method as in EMA, 2020; conditions: ref EMA, 2020; cited from earlier work
[5] = Severe acute respiratory syndrome coronavirus 2, Vero C1008, 72 h; read-out: CPE EC50
[6] = Severe acute respiratory syndrome coronavirus 2, Vero C1008; […]; DMSO 0%, no-virus control 100%; hit confirmation; read-out: CPE % efficacy
[7] = Severe acute respiratory syndrome coronavirus 2, Vero C1008, read-out: CPE % Efficacy

CN(C)CC/C=C1/c2ccccc2Sc2ccc(Cl)cc21 [Chlorprothixene, reference compound]
EC50 [1, 5]: 10 µM
Emax [1, 6]: 104%
Elimination T1/2 ([2]; Single dose 100 mg IV, ref Bagli et al. (1996)): 25.8 ± 13.6 h
EC50 (SARS-CoV): ~10 µM
cytotoxicity (in vitro): < 30%

COC(=O)[C@H]1[C@H]2C[C@@H]3c4[nH]c5ccccc5c4CCN3C[C@H]2C[C@@H](OC(=O)c2cc(OC)c(OC)c(OC)c2)[C@@H]1OC [Deserpidine, reference compound]
EC50 [1, 5]: 10 µM
Emax [1, 6]: 84.7%
Elimination T1/2 ([2]; Single dose 0.25 mg PO, ref Zhang et al. (2009)): 42.9 ± 17.8 h
cytotoxicity at 72 h (in vitro): < 30%

CNCC[C@H](Oc1cccc2ccccc12)c1cccs1 [Duloxetine hydrochloride, reference compound]
EC50 ([1]; Severe acute respiratory syndrome coronavirus 2, Vero C1008, 72 h, read-out: CPE EC50): 10 µM
Emax [1, 7]: 90%
Elimination T1/2 ([2]; 60 mg BID PO, ref Knadler et al. (2011)): 6.96 to 14.9 h
cytotoxicity (in vitro): < 30%

CN(C)C(=O)C(CCN1CCC(O)(c2ccc(Cl)cc2)CC1)(c1ccccc1)c1ccccc1 [Loperamide hydrochloride, reference compound]
Emax [1, 6]: 98.6%
Elimination T1/2 ([2]; Single dose 2 mg PO, ref Janssen Pharmaceutica Inc. (1998)): 9.1 to 14.4 h
cytotoxicity (in vitro): < 30%

CNCCCC12CCC(c3ccccc31)c1ccccc12 [Maprotiline hydrochloride, reference compound]
Emax [1, 7]: 104%
Elimination T1/2 ([2]; Single dose 75 mg PO, ref Maguire et al. (1980)): 45 h
cytotoxicity (in vitro): < 30%

COc1ccc2c(c1)N(C[C@H](C)CN(C)C)c1ccccc1S2 [Methotrimeprazine maleate, reference compound]
EC50 [1, 5]: 10 µM
Emax [1, 6]: 84.6%
Elimination T1/2 ([2]; Single dose 25 mg PO, ref AA Pharma Inc. (2012)): 10.8 h
EC50 (SARS-CoV): ~10 µM
cytotoxicity at 72 h (in vitro): < 30%

CC(=O)c1ccc2c(c1)N(CCCN1CCC(CCO)CC1)c1ccccc1S2 [Piperacetazine, reference compound]
EC50 [1, 5]: 10 µM
Emax [1, 6]: 104%
EC50 (Ebola virus): 9.68 µM
cytotoxicity (in vitro): < 30%

CCC(CC)COC(=O)[C@H](C)N[P@](=O)(OC[C@H]1O[C@@](C#N)(c2ccc3c(N)ncnn23)[C@H](O)[C@@H]1O)Oc1ccccc1 [Remdesivir, reference compound]
EC50 [1, 5]: 10 µM
EC50 ([1]; Severe acute respiratory syndrome coronavirus 2, Vero C1008, independent runs of primary screens and hit confirmation; read-out: EC50 in the CPE assay, control concentration-response per run): 4.56 µM
IC50 ([1]; Severe acute respiratory syndrome coronavirus 2, Vero C1008, printed in picture of Figure 2B, one value per run; read-out: % CPE Rescue: IC50): 4.56 µM
Emax [1, 6]: 133%
EC50 ([1]; independent runs of primary screens and hit confirmation; listed as remdesivir; read-out: EC50 in the CPE assay, control concentration-response per run): 5.17 µM
EC50 ([1]; independent runs of primary screens and hit confirmation; read-out: EC50 in the CPE assay, control concentration-response per run): 4.42 µM and 7.28 µM
IC50 (Vero E6 cells): > 30 µM
EC50 (SARS-CoV-2 [3]): > 1000 nM
EC50 (SARS-CoV-2 [4]): > 50 nM
Substrate of Pgp (P-glycoprotein (P-gp)): substrate of Pgp
cytotoxicity (in vitro): < 30%
